These results are taken from ChEMBL document CHEMBL4422621, “Novel chalcone and flavone derivatives as selective and dual inhibitors of the transport proteins ABCB1 and ABCG2” (Eur J Med Chem, 2019).

In data set [1] the target is T1, Broad substrate specificity ATP-binding cassette transporter ABCG2 (Homo sapiens, UniProt Q9UNQ0).
T1 sequence (Q9UNQ0 whole entry): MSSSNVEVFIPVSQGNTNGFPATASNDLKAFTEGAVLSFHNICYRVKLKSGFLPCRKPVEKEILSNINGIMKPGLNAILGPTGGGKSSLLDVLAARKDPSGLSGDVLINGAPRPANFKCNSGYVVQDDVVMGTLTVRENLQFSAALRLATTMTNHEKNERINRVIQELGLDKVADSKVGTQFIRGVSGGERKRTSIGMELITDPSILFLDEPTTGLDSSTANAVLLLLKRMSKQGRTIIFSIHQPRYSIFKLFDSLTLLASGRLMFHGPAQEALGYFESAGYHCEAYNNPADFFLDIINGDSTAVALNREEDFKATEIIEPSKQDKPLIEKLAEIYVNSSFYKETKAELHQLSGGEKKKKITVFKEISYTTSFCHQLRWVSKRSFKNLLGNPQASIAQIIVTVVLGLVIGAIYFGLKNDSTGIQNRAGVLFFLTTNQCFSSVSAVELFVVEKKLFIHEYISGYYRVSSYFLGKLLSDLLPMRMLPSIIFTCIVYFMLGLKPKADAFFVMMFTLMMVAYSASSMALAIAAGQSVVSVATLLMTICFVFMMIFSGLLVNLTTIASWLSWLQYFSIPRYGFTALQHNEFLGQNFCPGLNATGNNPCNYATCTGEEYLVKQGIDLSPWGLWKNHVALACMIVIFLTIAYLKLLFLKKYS
As to the kind of experiment: Inhibition of ABCG2 (unknown origin) expressed in MDCK II BCRP cells assessed as effect on pheophorbide A accumulation after 120 mins by flow cytometric analysis. In kind it is cell-based. In general terms: Flow cytometry measures light scatter and fluorescence of single cells or particles in a stream.

Data set [2] has as its target T2, ABCG2 (BCRP) (Homo sapiens, UniProt Q9UNQ0).
T2 sequence (Q9UNQ0 whole entry): T1 sequence (Q9UNQ0 whole entry)
In words: (§1) Inhibition of ABCG2 (unknown origin) expressed in MDCK II BCRP cells assessed as effect on heophorbide A accumulation at 5 to 10 uM after 120 mins by flow cytometric analysis relative to control. To be noted: MDCK II BCRP cells expressing ABCG2, probe pheophorbide A. It counts as cell-based.

Data set [3] addresses T3, ATP-dependent translocase ABCB1 (Homo sapiens, UniProt P08183). In words: (§2) Inhibition of ABCB1 in human A2780/ADR cells preincubated for 30 mins followed by calcein AM addition and measured every 60 secs for 1 hr by fluorescence assay. It counts as cell-based.
Data set [4] in a line: Growth inhibition of human A2780 cells after 72 hrs by MTT assay. In kind it is cell-based. (Formazan colour is commonly taken as a measure of viable cells.)
Data set [5] in a line: Growth inhibition of human A2780/ADR cells after 72 hrs by MTT assay. It counts as cell-based.
A short description of data set [6]: Growth inhibition of MDCK2 cells after 72 hrs by MTT assay. It counts as cell-based, Canis lupus familiaris, MDCK-II. To be noted: dog.
Data set [7] is described as follows: Growth inhibition of MDCK2 cells expressing BCRP (unknown origin) after 72 hrs by MTT assay. In kind it is ADME, cell-based, Canis lupus familiaris, MDCK-II. To be noted: dog.
In data set [8] the test system is ABCB1 (P-gp). As to the kind of experiment: Therapeutic index, ratio of GI50 for human A2780/ADR cells to EC50 for ABCB1 in human A2780/ADR cells. In kind it is toxicity, cell-based.
Data set [9] relates to ABCG2 (BCRP). In words: Therapeutic index, ratio of GI50 for MDCK2 cells expressing BCRP (unknown origin) to EC50 for ABCG2 (unknown origin) co-expressed in MDCK2 cells expressing BCRP (unknown origin). It counts as toxicity, cell-based. Conditions: dog; call rule not given here.
Data set [10] has as its target ABCB1 (P-gp) (Homo sapiens, UniProt P08183). Described as §2. In kind it is cell-based. To be noted: human, A2780/ADR cells, probe calcein AM; read-out: Imax.
Data set [11] deals with T3, ATP-dependent translocase ABCB1. As to the kind of experiment: Inhibition of ABCB1 in human A2780/ADR cells at 5 to 10 uM preincubated for 30 mins followed by calcein AM addition and measured every 60 secs for 1 hr by fluorescence assay. It counts as cell-based.
The target of data set [12] is T4, Multidrug resistance-associated protein 1 (Homo sapiens, UniProt P33527). In words: Inhibition of ABCC1 in human […] cells at 5 to 10 uM preincubated for 30 mins followed by calcein AM addition and measured every 60 secs for 1 hr by fluorescence assay. It counts as cell-based.
T4 sequence (P33527 whole entry): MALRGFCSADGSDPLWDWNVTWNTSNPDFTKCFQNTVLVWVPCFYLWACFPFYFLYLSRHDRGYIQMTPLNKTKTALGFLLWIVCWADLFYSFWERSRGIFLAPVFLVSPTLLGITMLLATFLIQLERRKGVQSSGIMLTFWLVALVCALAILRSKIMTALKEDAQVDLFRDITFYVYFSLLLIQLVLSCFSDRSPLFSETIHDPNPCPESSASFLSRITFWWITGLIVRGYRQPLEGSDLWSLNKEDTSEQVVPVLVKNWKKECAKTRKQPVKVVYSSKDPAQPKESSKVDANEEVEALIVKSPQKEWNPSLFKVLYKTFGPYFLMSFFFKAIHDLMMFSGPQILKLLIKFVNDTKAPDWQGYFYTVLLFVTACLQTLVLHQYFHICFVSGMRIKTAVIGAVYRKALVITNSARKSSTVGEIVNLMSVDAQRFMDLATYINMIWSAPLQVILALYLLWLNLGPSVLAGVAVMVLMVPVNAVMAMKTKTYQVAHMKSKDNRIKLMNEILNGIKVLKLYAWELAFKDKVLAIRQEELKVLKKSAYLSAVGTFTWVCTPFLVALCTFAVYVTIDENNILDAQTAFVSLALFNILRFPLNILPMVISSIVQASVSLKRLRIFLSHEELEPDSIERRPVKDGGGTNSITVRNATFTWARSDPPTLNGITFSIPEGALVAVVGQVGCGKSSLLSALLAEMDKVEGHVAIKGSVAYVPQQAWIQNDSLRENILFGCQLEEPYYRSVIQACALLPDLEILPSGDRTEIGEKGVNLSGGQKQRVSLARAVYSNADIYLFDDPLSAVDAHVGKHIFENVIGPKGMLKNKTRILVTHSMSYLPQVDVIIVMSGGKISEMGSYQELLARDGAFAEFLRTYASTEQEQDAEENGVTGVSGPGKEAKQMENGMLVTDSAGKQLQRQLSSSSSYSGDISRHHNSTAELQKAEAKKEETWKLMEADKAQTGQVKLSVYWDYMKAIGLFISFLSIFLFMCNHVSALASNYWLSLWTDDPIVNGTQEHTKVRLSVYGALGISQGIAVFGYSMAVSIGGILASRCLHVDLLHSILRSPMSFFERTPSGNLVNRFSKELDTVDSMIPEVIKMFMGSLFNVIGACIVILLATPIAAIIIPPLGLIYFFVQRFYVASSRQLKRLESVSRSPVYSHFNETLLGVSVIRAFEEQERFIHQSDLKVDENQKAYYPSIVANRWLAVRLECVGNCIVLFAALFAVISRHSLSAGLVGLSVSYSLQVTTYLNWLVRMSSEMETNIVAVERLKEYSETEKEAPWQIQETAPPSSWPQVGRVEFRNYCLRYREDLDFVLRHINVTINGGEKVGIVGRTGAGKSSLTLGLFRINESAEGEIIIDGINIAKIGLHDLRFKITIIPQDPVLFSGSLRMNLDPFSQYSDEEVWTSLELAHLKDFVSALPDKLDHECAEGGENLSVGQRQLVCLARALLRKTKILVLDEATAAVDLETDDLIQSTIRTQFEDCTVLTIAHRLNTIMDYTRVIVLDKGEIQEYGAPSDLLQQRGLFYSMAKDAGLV
The target in data set [13] is T1, Broad substrate specificity ATP-binding cassette transporter ABCG2. The data set is described as §1. To be noted: 2 h. In kind it is cell-based.
Data set [14] deals with T4, Multidrug resistance-associated protein 1. In words: Inhibition of ABCC1 in human […] cells preincubated for 30 mins followed by calcein AM addition and measured every 60 secs for 1 hr by fluorescence assay. It counts as cell-based.

T3 sequence (P08183 whole entry): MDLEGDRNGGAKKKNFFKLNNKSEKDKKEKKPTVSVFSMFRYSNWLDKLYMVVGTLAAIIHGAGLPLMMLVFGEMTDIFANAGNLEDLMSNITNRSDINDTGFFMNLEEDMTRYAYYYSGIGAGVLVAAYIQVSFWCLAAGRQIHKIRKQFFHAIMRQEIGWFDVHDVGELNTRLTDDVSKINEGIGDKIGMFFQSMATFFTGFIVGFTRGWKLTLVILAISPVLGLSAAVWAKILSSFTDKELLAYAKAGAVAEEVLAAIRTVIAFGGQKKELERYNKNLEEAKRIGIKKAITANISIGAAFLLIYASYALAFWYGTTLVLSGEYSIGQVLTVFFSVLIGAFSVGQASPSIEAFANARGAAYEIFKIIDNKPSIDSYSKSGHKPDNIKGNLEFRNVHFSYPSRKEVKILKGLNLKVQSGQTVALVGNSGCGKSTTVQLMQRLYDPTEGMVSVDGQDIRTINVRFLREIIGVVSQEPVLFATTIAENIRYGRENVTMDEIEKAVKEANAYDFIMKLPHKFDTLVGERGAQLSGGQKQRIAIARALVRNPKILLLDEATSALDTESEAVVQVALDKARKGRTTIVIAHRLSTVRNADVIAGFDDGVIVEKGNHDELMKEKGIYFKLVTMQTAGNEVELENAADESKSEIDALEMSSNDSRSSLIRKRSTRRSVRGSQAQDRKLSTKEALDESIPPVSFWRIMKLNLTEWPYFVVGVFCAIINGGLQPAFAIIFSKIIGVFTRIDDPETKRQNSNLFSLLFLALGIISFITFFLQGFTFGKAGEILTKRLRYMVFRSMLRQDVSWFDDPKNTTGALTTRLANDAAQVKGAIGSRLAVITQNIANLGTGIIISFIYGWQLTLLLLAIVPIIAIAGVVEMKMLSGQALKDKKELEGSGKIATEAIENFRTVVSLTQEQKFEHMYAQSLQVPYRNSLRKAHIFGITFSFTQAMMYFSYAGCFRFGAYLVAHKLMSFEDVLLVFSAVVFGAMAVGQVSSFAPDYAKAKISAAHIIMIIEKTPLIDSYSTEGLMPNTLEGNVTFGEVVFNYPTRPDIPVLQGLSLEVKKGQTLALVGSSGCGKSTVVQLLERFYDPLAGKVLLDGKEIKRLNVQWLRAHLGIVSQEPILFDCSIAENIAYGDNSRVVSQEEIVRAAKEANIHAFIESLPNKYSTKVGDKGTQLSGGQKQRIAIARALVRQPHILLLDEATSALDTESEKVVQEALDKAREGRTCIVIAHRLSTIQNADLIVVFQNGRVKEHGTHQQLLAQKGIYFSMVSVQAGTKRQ
ABCB1 (P-gp) (Homo sapiens, UniProt P08183), sequence (P08183 whole entry): as above

In the case of `COc1ccc(-c2c(OCC(=O)Nc3cccc4ccccc34)oc3ccccc3c2=O)cc1OC`, the figures for the IC50 in [1] and in [3] were 3.75 µM and 5.43 µM, respectively. Further, at ABCG2 (BCRP) [2], the inhibition at 2 h was at least 25%. The GI50 at 72 h in data set [4] is 43.6 µM; in data set [5], 45.3 µM; in [6] it was over 100 µM; in data set [7] it was over 100 µM. For the same compound, the selectivity ratio in the data set on ABCB1 (P-gp) [8] was 8.3; in the data set on ABCG2 (BCRP) [9] it was over 26.7.
For `COc1cc(/C=C/C(=O)c2cccc(OCC(=O)Nc3ccc4c(c3)COC4=O)c2)cc(OC)c1OC`, the IC50 in data set [1] is 9.93 µM; in data set [3] it was 11.7 µM. The inhibition at 2 h on ABCG2 (BCRP) [2] was at least 25%.
For the compound `O=C(COc1cccc(C(=O)/C=C/c2ccccc2)c1)Nc1ccc2c(c1)COC2=O`, in data set [1], the IC50 is 6.08 µM. Also, on ABCG2 (BCRP) [2], the inhibition at 2 h was at least 25%. Moreover, the GI50 at 72 h stood at 11.5 µM in data set [6] and 16.6 µM in data set [7]. In addition, the selectivity ratio with ABCG2 (BCRP) [9] was 2.7.
With `COc1cc(/C=C/C(=O)c2ccc(OCC(=O)NCc3ccc4c(c3)OCO4)cc2)cc(OC)c1OC`, in [1], the IC50 amounted to 6.89 µM. The inhibition at 2 h at ABCG2 (BCRP) [2] is at least 25%. Also, the values for the GI50 at 72 h in data set [6] and in data set [7] were 61.5 µM and 63.5 µM, respectively. In addition, the selectivity ratio in the data set with ABCG2 (BCRP) [9] is 9.2.
As for `O=C(COc1c(-c2ccccc2Cl)oc2ccccc2c1=O)Nc1ccc2c(c1)COC2=O`, the half-inhibitory concentration (IC50) in data set [1] is 2.9 µM; in [3] it was 5.01 µM. Also, the inhibition at 2 h at ABCG2 (BCRP) [2] was at least 25%. For the same compound, the 50% growth inhibitory concentration (GI50) at 72 h in data set [4] worked out at 61.1 µM; in data set [5], 69.2 µM; in data set [6] it was 67.6 µM; in data set [7], 56.3 µM. The selectivity ratio in the data set on ABCB1 (P-gp) [8] came to 13.8; with ABCG2 (BCRP) [9], 19.4.
For `COc1ccc(-c2c(OCC(=O)Nc3cccc4ccccc34)oc3ccccc3c2=O)cc1`, the IC50 in data set [1] is 5.09 µM; in [3], 1.41 µM. For the same compound, at ABCG2 (BCRP) [2], the inhibition at 2 h is at least 25%. In addition, the Emax at 1 h at ABCB1 (P-gp) [10] was 51%. Further, the GI50 at 72 h in data set [6] and in data set [7] was over 100 µM each time. Further, in the data set with ABCG2 (BCRP) [9], the selectivity ratio is over 19.6.
On to `COc1cc(C(=O)/C=C/c2cc(OC)c(OC)c(OC)c2)ccc1O`, for which the “inhibition (INH)” value in data set [11] and in [12] was “Not Active” in each case. The IC50 in data set [1] was found to be 1.97 µM. On ABCG2 (BCRP) [2], the inhibition at 2 h is at least 25%. For the same compound, the GI50 at 72 h in data set [6] is 7.56 µM; in data set [7], 9.38 µM. Also, the selectivity ratio with ABCG2 (BCRP) [9] was determined as 4.8.
Turning to `CCCOc1ccc(/C=C/C(=O)c2ccc(O)cc2)cc1`, the “inhibition (INH)” value in data set [11] and in [12] was “Not Active” each time. The IC50 in [1] was 4.74 µM. The inhibition at 2 h at ABCG2 (BCRP) [2] is at least 25%. In addition, the results for the GI50 at 72 h in [6] and in data set [7] were 31.1 µM and 28.5 µM, respectively. The selectivity ratio in the data set on ABCG2 (BCRP) [9] was 6.
Consider `COc1ccc(NC(=O)COc2ccc(C(=O)/C=C/c3c(F)cccc3F)cc2)cc1OC`, for which the IC50 in [1] came out at 6.11 µM. On ABCG2 (BCRP) [2], the inhibition at 2 h is at least 25%. The GI50 at 72 h in data set [6] was found to be 36.2 µM; in [7], 36.6 µM. The selectivity ratio in the data set with ABCG2 (BCRP) [9] stood at 6.
In the case of `Cc1ccc(-c2c(OCC(=O)Nc3cccc4ccccc34)oc3ccccc3c2=O)cc1`, the “inhibition (INH)” value in data set [13] is “Not Active”. Further, in [3], the IC50 was 1.89 µM. The GI50 at 72 h in data set [4] came to 68.7 µM; in data set [5], 98.6 µM. Moreover, the selectivity ratio in the data set with ABCB1 (P-gp) [8] was 52.2.
In the case of `COc1ccc(NC(=O)COc2ccc(C(=O)/C=C/c3cc(OC)c(OC)c(OC)c3)cc2)cc1OC`, the IC50 in data set [1] is 3.37 µM; in data set [14], 12.5 µM. On ABCG2 (BCRP) [2], the inhibition at 2 h is at least 25%. For the same compound, the 50% growth inhibitory concentration (GI50) at 72 h in [6] worked out at 18.9 µM; in [7] it was 27.7 µM. In addition, the selectivity ratio with ABCG2 (BCRP) [9] came to 8.2.

By IC50 is commonly meant the midpoint of a concentration-inhibition curve. Broadly, the inhibition is how much of the control response was suppressed. Usually GI50 stands for the concentration at which growth is held to half of that of the control.
